# From ChEMBL document CHEMBL1212753, “Inducible APOBEC3G-Vif double stable cell line as a high-throughput screening platform to identify antiviral compounds” (Antimicrob Agents Chemother, 2010)
# Experiments:
# [1] = Inhibition of HIV Vif by replicating virus inhibition assay; design: species or system Human immunodeficiency virus
# [2] = Inhibition of HIV Vif induced human cytidine-deaminase degradation in double transgenic HEK293 cells constitutively expressing enhanced yellow fluorescent protein expressor (EYFP-A3G) fusion and Tet-Off controllable Vif protein after 24 hrs by fluorimetric assay; assay type: cell-based, Human immunodeficiency virus
smiles,measurement,setting,value
COc1ccccc1NC(=O)c1ccccc1Sc1ccc([N+](=O)[O-])cc1,EC50,[1],3 µM
same,EC50,[2],5.8 µM
